Like-named read-outs stand apart in the source and are kept apart here.
What was measured:
[1] = Toxicokinetic evaluation in rats; settings: rat, in vivo
Description: For toxicokinetic evaluation, all animals were observed twice daily for mortality and moribundity. Blood samples were collected from three animals/sex/group at 0 (pre-dose), 1, 2, 4, 8 and 24 hours after dose administration on study days 0 and 87. All toxicokinetic animals were euthanized and discarded following the final blood collection (study day 88).

in vivo = assay type: in vivo; settings: both sexes, beagle, dog, in vivo, po
Description: Eighteen male and eighteen female beagle dogs were received from Ridglan Farms, Mt. Horeb, Wis. […] Each group consisted of four males and four females. All animals/sex/group were scheduled for the primary necropsy at the end of the 13-week treatment period.
The animals were observed twice daily for mortality and moribundity. Clinical examinations were performed daily at the time of dosing and approximately 1-2 and approximately 3 hours following dose administration. Detailed physical examinations were performed weekly. Clinical pathology evaluations (hematology, serum chemistry and urinalysis) were performed prior to the initiation of dose administration (study week-1) and prior to the scheduled necropsy (study week 13). Individual body weights were recorded weekly, beginning approximately two weeks prior to test article administration (study week-2). Mean body weights and mean body weight changes were calculated for each corresponding interval. Final body weights (fasted) were recorded prior to the scheduled necropsy. […] Gross lesions were also examined from the 2.0 and 6.0 mg/kg/day groups.

[2] = female, Crl:CD(SD)IGS BR (Sprague-Dawley), po, 60 mg/kg/day
[3] = female, Crl:CD(SD)IGS BR, po, 10 mg/kg/day
[4] = female, Crl:CD(SD)IGS BR, po, 25 mg/kg/day
[5] = male, Crl:CD(SD)IGS BR, po, 10 mg/kg/day
[6] = male, Crl:CD(SD)IGS BR, po, 25 mg/kg/day
[7] = male, Crl:CD(SD)IGS BR, po, 60 mg/kg/day

Structure (SMILES): Clc1ccc([C@]23CNCC2C3)cc1Cl (single isomer, unassigned; (+)) [(+)-1-(3,4-dichlorophenyl)-3-azabicyclo[3.1.0]hexane]
- AUC(0-t) ([1]; Crl:CD(SD)IGS BR (Sprague-Dawley), male rats, 10 mg/kg/day oral, Day 87, read-out: AUC0-24 h): 8130 ng·h/mL
- AUC(0-t) ([1]; Crl:CD(SD)IGS BR, female rats, 10 mg/kg/day oral, Day 87, read-out: AUC0-24 h): 14400 ng·h/mL
- AUC0-24 h [1, 2]: 88137 ng·h/mL
- AUC(0-t) ([1]; female, Crl:CD(SD)IGS BR (Sprague-Dawley), po, 60 mg/kg/day, AUC0-24 h): 54400 ng·h/mL
- Cmax [1, 2]: 6600 ng/mL
- Tmax [1, 2]: 2 h
- AUC(0-t) ([1]; female, Crl:CD(SD)IGS BR, po, 10 mg/kg/day, AUC0-24 h): 10900 ng·h/mL
- Cmax [1, 3]: 1390 ng/mL
- Tmax [1, 3]: 1 h
- AUC0-24 h [1, 4]: 30205 ng·h/mL
- AUC(0-t) ([1]; female, Crl:CD(SD)IGS BR, po, 25 mg/kg/day, AUC0-24 h): 31000 ng·h/mL
- Cmax [1, 4]: 2810 ng/mL
- Tmax [1, 4]: 2 h
- AUC(0-t) ([1]; male, Crl:CD(SD)IGS BR (Sprague-Dawley), po, 10 mg/kg/day, AUC0-24 h): 5940 ng·h/mL
- Cmax [1, 5]: 863 ng/mL
- Tmax [1, 5]: 2 h
- AUC0-24 h [1, 6]: 21975 ng·h/mL
- AUC(0-t) ([1]; male, Crl:CD(SD)IGS BR, po, 25 mg/kg/day, AUC0-24 h): 17400 ng·h/mL
- Cmax [1, 6]: 2360 ng/mL
- Tmax [1, 6]: 2 h
- AUC0-24 h [1, 7]: 60093 ng·h/mL
- AUC(0-t) ([1]; male, Crl:CD(SD)IGS BR, po, 60 mg/kg/day, AUC0-24 h): 36300 ng·h/mL
- Cmax [1, 7]: 3680 ng/mL
- Tmax [1, 7]: 1 h
- NOAEL at 13 weeks (in vivo): 6 mg/kg/day

Source: US20070225351A1, “Methods and compositions for controlling body weight and appetite” (priority 2002, published 2007)
